Results published in US12473262B2, “Aryl hydrocarbon receptor activators” (Oregon State University, priority 2019, dated 2025).

Legend:
[1] = target: aryl hydrocarbon receptor (AhR) (Mus musculus (Mouse), UniProt P30561); test: AhR ligand screening: AhRE-luciferase reporter in transfected Hepa1 cells; assay type: cell-based; conditions: for Fold @ 1 nM: fold change of luciferase expression at 1 nM test compound relative to vehicle (0.1% DMSO); for Fold @ 100 nM: fold change of luciferase expression at 100 nM test compound relative to vehicle (0.1% DMSO); for Fold @ 10 uM: fold change of luciferase expression at 10 uM test compound relative to vehicle (0.1% DMSO); for Fold relative to benchmark @ 100 nM: luciferase expression at 100 nM test compound relative to 100 nM benchmark compound 11-cl-BBQ
Chain of aryl hydrocarbon receptor (AhR) (P30561 10-805): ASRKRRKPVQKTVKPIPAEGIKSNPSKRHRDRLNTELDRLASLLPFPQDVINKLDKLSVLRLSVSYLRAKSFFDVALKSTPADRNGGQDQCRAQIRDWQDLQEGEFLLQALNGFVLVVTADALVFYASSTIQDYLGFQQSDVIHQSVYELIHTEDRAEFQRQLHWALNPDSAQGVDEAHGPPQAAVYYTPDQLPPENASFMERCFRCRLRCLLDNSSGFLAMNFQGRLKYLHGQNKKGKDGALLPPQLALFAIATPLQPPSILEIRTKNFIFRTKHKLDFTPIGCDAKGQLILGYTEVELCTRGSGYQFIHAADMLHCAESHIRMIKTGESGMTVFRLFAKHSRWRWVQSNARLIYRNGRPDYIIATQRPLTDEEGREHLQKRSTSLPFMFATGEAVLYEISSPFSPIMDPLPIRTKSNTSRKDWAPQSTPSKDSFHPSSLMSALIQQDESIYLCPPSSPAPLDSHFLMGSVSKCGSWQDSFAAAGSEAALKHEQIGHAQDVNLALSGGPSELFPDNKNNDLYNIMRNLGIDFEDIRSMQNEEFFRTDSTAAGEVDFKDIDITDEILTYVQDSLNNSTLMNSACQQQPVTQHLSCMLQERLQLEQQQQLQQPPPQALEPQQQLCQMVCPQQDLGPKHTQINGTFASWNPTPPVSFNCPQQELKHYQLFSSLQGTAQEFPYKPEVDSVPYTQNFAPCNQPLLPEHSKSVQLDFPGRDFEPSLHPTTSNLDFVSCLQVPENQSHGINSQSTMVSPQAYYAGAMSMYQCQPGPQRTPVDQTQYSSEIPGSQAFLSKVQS
Chain of aryl hydrocarbon receptor (AhR) (P53762 whole entry partner): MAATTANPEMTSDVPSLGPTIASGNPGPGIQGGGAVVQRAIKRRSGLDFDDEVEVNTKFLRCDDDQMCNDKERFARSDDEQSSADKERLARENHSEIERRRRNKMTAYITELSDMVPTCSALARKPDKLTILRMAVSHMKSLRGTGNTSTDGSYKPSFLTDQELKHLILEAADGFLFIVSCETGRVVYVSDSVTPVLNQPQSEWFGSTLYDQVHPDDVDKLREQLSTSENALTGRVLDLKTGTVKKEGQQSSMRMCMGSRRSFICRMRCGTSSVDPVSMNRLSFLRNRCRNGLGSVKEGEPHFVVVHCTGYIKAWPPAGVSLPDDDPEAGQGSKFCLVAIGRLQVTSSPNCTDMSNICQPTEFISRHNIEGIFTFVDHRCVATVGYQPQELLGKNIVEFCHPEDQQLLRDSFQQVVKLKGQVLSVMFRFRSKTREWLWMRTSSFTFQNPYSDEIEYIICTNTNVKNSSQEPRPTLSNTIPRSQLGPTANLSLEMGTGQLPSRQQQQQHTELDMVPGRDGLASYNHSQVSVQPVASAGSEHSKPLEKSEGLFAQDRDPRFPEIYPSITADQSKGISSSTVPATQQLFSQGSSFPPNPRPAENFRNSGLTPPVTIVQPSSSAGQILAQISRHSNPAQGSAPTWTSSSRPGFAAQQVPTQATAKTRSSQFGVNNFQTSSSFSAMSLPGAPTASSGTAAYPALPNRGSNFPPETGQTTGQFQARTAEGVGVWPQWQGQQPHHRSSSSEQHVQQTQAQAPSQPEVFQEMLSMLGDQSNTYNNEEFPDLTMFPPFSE
Outline: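 Values are fold luciferase induction relative to vehicle (0.1% DMSO), read by luminometry of lysates from Hepa1 cells carrying an AhRE-driven luciferase reporter. Cells were seeded at 1×10^4 per well, grown overnight and treated with compound before lysis.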

[2] = Liver microsomal stability, rat; conditions: for Rem @ RLM × 30 min: rat liver microsomes, 1 μM compound, 0.5 mg/ml protein; for half-life at 1 μM / microsomal CLint at 1 μM: rat, liver microsomes, pH 7.4
Protocol: (§1) The assessment of metabolic stability of testing compounds was performed using human, mouse, rat, dog and monkey liver microsomes (20 mg protein/ml). Each reaction mixture contained 42.5 μL of 0.1 M potassium phosphate buffer pH 7.4, containing respective LM protein (final concentration 0.5 mg/ml). 2.5 μL of the compound stock solution was added in it (1 μM final concentration). The reaction was initiated by the addition of 5 μL NADPH solution (final Concentration 1 mM). At different time points (0, 5, 15, and 30 minutes), samples were quenched with 200 μL of cold acetonitrile containing ISTD Propranolol. Samples were centrifuged at 3500 rpm for 20 mM at 4° C. Supernatant was subjected to LC-MS/MS analysis for quantification. Verapamil was used as a positive control.

[3] = Liver microsomal stability, human; conditions: for Rem @ HLM × 30 min: human liver microsomes, 1 μM compound, 0.5 mg/ml protein; for half-life at 1 μM / microsomal CLint at 1 μM: human, liver microsomes, pH 7.4
Protocol: as §1

[4] = Liver microsomal stability, mouse; conditions: for Rem @ MLM × 30 min: mouse liver microsomes, 1 μM compound, 0.5 mg/ml protein; for half-life at 1 μM / microsomal CLint at 1 μM: mouse, liver microsomes, pH 7.4
Protocol: as §1

Row | Compound | Fold @ 1 nM [1] [fold] | Fold @ 100 nM [1] [fold] | Fold @ 10 uM [1] [fold] | Fold relative to benchmark @ 100 nM [1] [fold] | Rem @ RLM × 30 min [2] [%] | half-life at 1 μM [2] [min] | microsomal CLint at 1 μM [2] [µL/min/mg] | Rem @ HLM × 30 min [3] [%] | half-life at 1 μM [3] [min] | microsomal CLint at 1 μM [3] [µL/min/mg] | Rem @ MLM × 30 min [4] [%] | half-life at 1 μM [4] [min] | microsomal CLint at 1 μM [4] [µL/min/mg]
1 | O=C(c1ccc(SC(F)(F)F)cc1)c1c[nH]c2ccc(Cl)cc12 [Compound 884] | 1 | 2 | 16 | 0.04 | 23.1 | 14.3 | 96.7 | 81.2 | 98.8 | 14 | 22.2 | 13.9 | 100
2 | O=S(=O)(c1ccc2ccccc2c1)n1c(-c2cccc3ccccc23)nc2cc(Cl)ccc21 [Compound 785] | 1 | 16 | 44 | 0.55 | 57.1 | 36.5 | 37.9 | 54.2 | 33.9 | 40.9 | 49.3 | 29.4 | 47.2
3 | O=C(C1CC1)n1c(-c2cccc3ccccc23)nc2ccc(Cl)cc21 [Compound 774] | 1 | 21 | 28 | 0.84 | 45.5 | 31.9 | 43.5 | 52.7 | 36.3 | 38.2 | 28.2 | 19.3 | 71.9
4 | O=S(=O)(c1ccc2ccccc2c1)n1c(-c2cccc3ccccc23)nc2ccc(Cl)cc21 [Compound 786] | 1 | 31 | 40 | 1.07 | 25.6 | 14.8 | 93.8 | 27.4 | 16.1 | 86.2 | 22.1 | 13.4 | 104
5 | O=C(c1ccc(Cl)cc1Cl)c1c[nH]c2ccc(Cl)cc12 [Compound 890] | 1 | 2 | 17 | 0.04 | 37.4 | 29 | 47.8 | 44.7 | 35.2 | 39.4 | 39.3 | 28.2 | 49.1
6 | CCc1ccc(S(=O)(=O)n2c(-c3cccc4ccccc34)nc3ccc(Cl)cc32)cc1 [Compound 776] | 1 | 15 | 20 | 0.6 | 27.5 | 16.3 | 84.9 | 28.3 | 16.4 | 84.6 | 23.9 | 14.6 | 94.7
7 | O=S(=O)(c1ccc(C(F)(F)F)cc1)n1c(-c2cccc3ccccc23)nc2cc(Cl)ccc21 [Compound 781] | 1 | 20 | 24 | 0.8 | 43.1 | 24.4 | 56.8 | 44.4 | 24.6 | 56.3 | 18.0 | 12.1 | 115
